# Legend:
# Format in all cases: cell-based
# HO-1 = HO-1 expression in mouse brain endothelial cell line CRL2581; settings: CRL2581 cells; for expression of HO-1 mRNA and protein: data not shown
# Excerpt: (§1) FIGS. 6D and 6E show protein expression of CXCL10 relative to actin in untreated control cells (D, E) and in cells treated with siSTAT3 (D), HEME (D, E), siSTAT3+HEME (D), AG490 (E) or AG490+HEME (E).
# (§2) High level of free HEME produced during malaria infection causes inflammation that damages host vascular endothelium and is a major contributor to pathogenesis of severe malaria. To determine how HEME stimulates HO-1, CXCL10 and STAT3 signaling pathways in vitro, mouse brain endothelial cell line CRL2581 was treated with HEME and the effects of HEME on expression of HO-1, CXCL10 and STAT3 activation was assessed. […] When pSTAT3 was reduced by short interfering STAT3 (siSTAT3) (FIG. 6B) or pharmacological inhibitor of Jak, AG490 (FIG. 6C), HO-1 protein expression was inhibited correspondingly.
# STAT3 = STAT3 activation (pSTAT3) in HEME-treated mouse brain endothelial cell line CRL2581; settings: CRL2581 cells; for pSTAT3 level: FIG. 6B, 6C, 6G
# Excerpt: as §1, §2
# [1] = system: Human brain microvascular endothelial cells (HBVEC); assay: HEME-induced cell death of HBVEC by MTT assay; settings: HEME+AG490 (50 μmol/l) for 24 h, FIG. 7
# Method: Human brain microvascular endothelial cells (HBVEC) were treated with HEME or with HEME plus AG490 and monitored for cell death progression by MTT assay.
# Cell death progression in HBVEC cultured after treatment with HEME or HEME+AG490 (50 μmol/l) for 24 h as assayed by MTT assay (*P<0.05, n=3 triplicate experiments). The curves correspond to 3 experiments run in parallel. In all the samples, the same concentration of vehicle (DMSO, 0.1%) was used.
# CXCL10 = CXCL10 expression and promoter activity in mouse brain endothelial cell line CRL2581; settings: CRL2581 cells
# Excerpt: as §1, §2
# [2] = system: JAK/STAT3 signaling pathway; assay: Human JAK/STAT signaling pathway real time RT^2 Profile PCR arrays in HBVEC; settings: HBVEC treated with 20 μM HEME vs vehicle; FIG. 8
# Method: Target genes of JAK/STAT3 signaling pathway upon HEME treatment was further assessed using real time RT^2 Profile PCR arrays (Qiagen, PAHS-039A). The results shown in FIG. 7 are expressed as the fold changes in expression obtained by comparing HBVEC treated with 20 μM HEME or with vehicle as control. […] The up regulated genes include STAT-induced gene matrix metallopeptidase 3 (MMP3), apoptosis-related gene CCAAT/enhancer binding protein (C/EBPb), Fc fragment of IgG, high affinity Ia, receptor (FCGR1A), Jun B proto-oncogene (JUNB), nuclear factor of kappa light polypeptide gene enhancer in B-cells 1 (NFκB), suppressor of cytokine signaling (SOCS3), SOCS4 and signal transducer and activator of transcription 4 (STAT4).
structure (smiles),measurement,setting,value
"N#C/C(=C\c1ccc(O)c(O)c1)C(=O)NCc1ccccc1 [AG490, tyrphostin AG490]",HO-1 protein expression,"HO-1; HEME-induced, pSTAT3 reduced, FIG. 6B, 6C",inhibited
same,pSTAT3 level,STAT3,reduced
same,HEME-induced apoptosis / cell death in HBVEC,[1],can rescue the HEME-induced apoptosis
same,expression of CXCL10,"CXCL10; protein relative to actin, FIG. 6D, 6E",reduced expression
"C=CC1=C(C)c2cc3[n-]c(cc4nc(cc5[n-]c(cc1n2)c(C)c5CCC(=O)[O-])C(CCC(=O)[O-])=C4C)c(C)c3C=C.[Co+2].[H+].[H+] [CoPP, cobalt protoporphyrin]",expression of HO-1 mRNA and protein,HO-1,significantly up regulated
same,pSTAT3 level,STAT3,increased
C=CC1=C(C)c2cc3[n-]c(cc4[n-]c(cc5nc(cc1n2)C(C)=C5C=C)c(C)c4CCC(=O)O)c(CCC(=O)O)c3C.[Fe+2] [HEME],"fold-change of down regulated genes (F2R, OAS1)",[2],greater than 2 fold
same,"fold-change of up regulated genes (MMP3, C/EBPb, FCGR1A, JUNB, NFκB, SOCS3, SOCS4, STAT4)",[2],greater than 2 fold
same,expression of HO-1 mRNA and protein,HO-1,significantly up regulated
same,HEME concentration at which pSTAT3 peaked,STAT3; FIG. 6A,5 μM
same,HEME concentration from which pSTAT3 was increased,STAT3; FIG. 6A,1 μM
same,expression of CXCL10 mRNA,CXCL10,significantly up regulated
same,CXCL10 promoter activity,CXCL10; data not shown,enhances CXCL10 promoter activity in a dose-dependent manner
C=CC1=C(C)c2cc3[n-]c(cc4[n-]c(cc5nc(cc1n2)C(C)=C5C=C)c(C)c4CCC(=O)O)c(CCC(=O)O)c3C.[Zn+2] [ZnPP],expression of HO-1 mRNA and protein,HO-1,down regulated
same,pSTAT3 level,STAT3,decreased

# — patent publication US8791067B2, “Method for treating malaria” (Morehouse School of Medicine, priority 2012, dated 2014)
